Results: US20100105749A1, “CHEMICAL COMPOUNDS, PHARMACEUTICAL COMPOSITIONS AND METHODS” (SMITHKLINE BEECHAM CORPORATION, priority 2007, published 2010)

System: Cynomolgus monkeys
Assay: Bilirubin Monkey Test
Type: in vivo
Procedure: The product of Example 4 was formulated in 5% DMSO: 2% Tween 80: 10% SBE-CD with 1 molar equiv of HCl at 6 mg/ml and dosed at 30 mg/kg. Cynomolgus monkeys (each group n=6) had baseline blood drawn at day 0 at 9 am. On day 1, the monkeys were fed their morning meal at 7 am. After 1 hour, all left over food was removed and fast was begun. There was twice a day oral dosing of compound or vehicle on day 1 and day 2 of the fast, on day 3 there was an oral dose the morning (8 am) before the blood draw (9 am). Food was returned to the monkeys at this point. Oral dosing occurred at approximately 8:00 a.m. and 4:00 p.m. administered by oral gavage. Serum chemistries were screened on baseline and end of treatment blood draws. Significant changes were detected in bilirubin levels. Bilirubin increased in the fasted state, as expected (total, direct, and indirect bilirubin changed 2.0-, 2.4- and 1.92-fold, respectively over baseline).

[1] = fasted cynomolgus monkeys, 30 mg/kg oral gavage twice a day, end of treatment (day 3) vs baseline
[2] = serum, 48 hr fast, 30 mg/kg oral twice a day, n=6

For `O=C(O)c1ccc2nc(NC(c3ccccc3)c3ccccc3)n(CCc3ccccc3)c2c1.O=S(=O)(O)O` [Example 4, 2-[(diphenylmethyl)amino]-1-(2-phenylethyl)-1H-benzimidazole-6-carboxylic acid sulfate], the “direct bilirubin change over baseline” value [1] was 4.71 fold, the “indirect bilirubin change over baseline” value [1] was 3.53 fold and the “total bilirubin change over baseline” value [1] was 3.74 fold. The “DBIL (direct bilirubin)” value [2] was 0.165 ± 0.01 mg/dL, the “IBIL (indirect bilirubin)” value [2] was 0.565 ± .036 mg/dL and the “TBIL (total bilirubin)” value [2] was 0.73 ± 0.04 mg/dL.
